In US20240336612A1, “BRM Targeting Compounds And Associated Methods Of Use” (Prelude Therapeutics Incorporated, priority 2021, published 2024):

Tests used:
SMARCA2 = target: T1, SMARCA2 (Homo sapiens, UniProt P51531); assay: SMARCA2 HiBiT degradation assay in HeLa cells; format: cell-based; settings: 18 hours incubation; for DC50: read-out: DC50 (SM2-HeLa), SMARCA2 degradation potency; for Dmax: read-out: Dmax % (SM2-HeLa), maximum SMARCA2 degradation within the concentrations tested
T1 construct: SMARCA2-HiBiT knock-in Hela monoclonal cell (CS302366); host or cells: HeLa (HiBiT knock-in monoclonal line)
Experimental: (§1) SMARCA2 HiBiT and SMARCA4 HiBiT Degradation Assay (cellular)
(§2) Preparation of SMARCA2/4-HiBiT Knock-In Cells
(§3) SMARCA2-HiBiT knock-in Hela monoclonal cell (CS302366) and SMARCA4-HiBiT knock-in Hela monoclonal cell (CS3023226) were purchased from Promega. The heterozygous HiBiT-knock-in was confirmed by sanger sequence in both SMARCA2-HiBiT and SMARCA4-HiBiT monoclonal cells.
(§4) SMARCA2 HiBiT and SMARCA4 HiBiT Degradation Assay in HeLa Cells
(§5) Dispense 10 μL aliquot of prepared Hela-SMARCA2-HiBiT or Hela-SMARCA4-HiBiT cells (1:1 ratio of cells:Trypan Blue (#1450013, Bio-Rad)) onto cell counting slide (#145-0011, Bio-Rad) and obtain cell density and cell viability using cell counter (TC20, Bio-Rad). Remove appropriate volume of resuspended cells from culture flask to accommodate 2500 cells/well @ 20 μL/well. Transfer Hela-HiBiT cells to 50 ml conical (#430290, Corning). Spin down at 1000 rpm for 5 min using tabletop centrifuge (SPINCHRON 15, Beckman). Discard supernatant and resuspend cell pellet in modified EMEM (#30-2003, ATCC) cell culture media containing 10% FBS (F2422-500ML, Sigma), and 1× Penicillin/Streptomycin (200 g/l) (30-002-CI, Corning) to a cell density of 125,000 cells/ml. Dispense 20 μL of resuspended Hela-HiBit cells per well in 384-well TC treated plate (#12-565-343, Thermo Scientific) using standard cassette (#50950372, Thermo Scientific) on Multidrop Combi (#5840310, Thermo Scientific) inside laminar flow cabinet. Dispense test compounds onto plates using digital liquid dispenser (D300E, Tecan). Incubate plates in humidified tissue culture incubator @37° C. for 18 hours. Add 20 ul of prepared Nano-Glo® HiBiT Lytic detection buffer (N3050, Promega) to each well of 384-well plate using small tube cassette (#24073295, Thermo Scientific) on Multidrop Combi, incubate @ RT for 30-60 min. Read plates on microplate reader (Envision 2105, PerkinElmer) using 384 well Ultra-Sensitive luminescence mode. Raw data files and compound information reports are swept into centralized data lake and deconvoluted using automated scripts designed by TetraScience, Inc. Data analysis, curve-fitting and reporting done in Dotmatics Informatics Suite using Screening Ultra module.
(§6) The results are shown below in Table 4 for the HiBiT assay. In Table 4, the DC50/Dmax% (SM2-HeLa) refers to SMARCA2 degradation potency/maximum SMARCA2 degradation within the concentrations tested in HeLa HiBiT assay. In Table 4, the DC50/Dmax% (SM4-HeLa) refers to SMARCA4 degradation potency/maximum SMARCA4 degradation within the concentrations tested in HeLa HiBiT assay.

SMARCA4 = target: T2, SMARCA4 (Homo sapiens, UniProt P51532); assay: SMARCA4 HiBiT degradation assay in HeLa cells; format: cell-based; settings: 18 hours incubation; for DC50: read-out: DC50 (SM4-HeLa), SMARCA4 degradation potency; for Dmax: read-out: Dmax % (SM4-HeLa), maximum SMARCA4 degradation within the concentrations tested
T2 construct: SMARCA4-HiBiT knock-in Hela monoclonal cell (CS3023226); host or cells: HeLa (HiBiT knock-in monoclonal line)
Experimental: as §1, §2, §3, §4, §5, §6

T1 sequence (P51531 whole entry): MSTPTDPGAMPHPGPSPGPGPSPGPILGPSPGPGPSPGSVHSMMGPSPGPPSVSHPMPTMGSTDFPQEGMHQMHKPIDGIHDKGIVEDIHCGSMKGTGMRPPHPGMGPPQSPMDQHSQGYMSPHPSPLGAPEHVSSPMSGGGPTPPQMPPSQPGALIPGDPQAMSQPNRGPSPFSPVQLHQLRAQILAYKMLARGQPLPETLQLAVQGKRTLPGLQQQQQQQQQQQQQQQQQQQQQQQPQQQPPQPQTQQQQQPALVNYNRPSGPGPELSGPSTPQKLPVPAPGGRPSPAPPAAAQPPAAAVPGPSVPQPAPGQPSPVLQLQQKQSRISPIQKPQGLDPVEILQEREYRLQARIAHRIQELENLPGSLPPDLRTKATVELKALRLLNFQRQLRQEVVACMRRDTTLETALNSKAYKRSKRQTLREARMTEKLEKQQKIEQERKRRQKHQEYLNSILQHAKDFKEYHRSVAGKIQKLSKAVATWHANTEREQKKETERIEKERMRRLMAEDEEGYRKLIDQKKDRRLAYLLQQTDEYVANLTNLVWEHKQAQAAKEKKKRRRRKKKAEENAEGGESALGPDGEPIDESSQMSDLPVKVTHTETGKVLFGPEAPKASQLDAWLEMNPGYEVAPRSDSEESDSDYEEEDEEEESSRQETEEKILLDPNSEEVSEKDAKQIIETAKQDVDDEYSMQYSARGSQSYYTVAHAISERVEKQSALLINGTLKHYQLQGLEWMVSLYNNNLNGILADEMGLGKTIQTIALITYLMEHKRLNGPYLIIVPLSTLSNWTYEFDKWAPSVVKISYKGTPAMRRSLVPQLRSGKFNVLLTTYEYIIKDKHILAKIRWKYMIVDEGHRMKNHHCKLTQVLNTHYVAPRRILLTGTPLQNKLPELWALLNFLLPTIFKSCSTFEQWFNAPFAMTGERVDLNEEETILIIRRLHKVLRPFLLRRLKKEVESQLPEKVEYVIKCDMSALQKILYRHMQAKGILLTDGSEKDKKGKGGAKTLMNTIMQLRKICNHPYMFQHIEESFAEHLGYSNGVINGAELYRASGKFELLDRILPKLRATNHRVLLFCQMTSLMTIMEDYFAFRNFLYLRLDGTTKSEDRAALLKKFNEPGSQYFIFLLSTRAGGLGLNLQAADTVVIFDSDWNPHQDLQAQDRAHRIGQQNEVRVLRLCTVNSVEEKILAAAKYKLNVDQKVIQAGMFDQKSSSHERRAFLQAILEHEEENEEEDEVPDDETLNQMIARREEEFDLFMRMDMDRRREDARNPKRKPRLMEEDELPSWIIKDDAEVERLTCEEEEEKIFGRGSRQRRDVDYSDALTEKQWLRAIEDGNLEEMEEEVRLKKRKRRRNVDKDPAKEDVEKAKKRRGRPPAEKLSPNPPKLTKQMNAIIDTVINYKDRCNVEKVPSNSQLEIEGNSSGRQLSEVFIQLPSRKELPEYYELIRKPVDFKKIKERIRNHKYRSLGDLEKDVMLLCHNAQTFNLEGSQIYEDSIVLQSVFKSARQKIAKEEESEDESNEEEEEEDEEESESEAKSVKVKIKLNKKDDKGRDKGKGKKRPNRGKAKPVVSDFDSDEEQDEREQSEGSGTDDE
T2 sequence (P51532 whole entry): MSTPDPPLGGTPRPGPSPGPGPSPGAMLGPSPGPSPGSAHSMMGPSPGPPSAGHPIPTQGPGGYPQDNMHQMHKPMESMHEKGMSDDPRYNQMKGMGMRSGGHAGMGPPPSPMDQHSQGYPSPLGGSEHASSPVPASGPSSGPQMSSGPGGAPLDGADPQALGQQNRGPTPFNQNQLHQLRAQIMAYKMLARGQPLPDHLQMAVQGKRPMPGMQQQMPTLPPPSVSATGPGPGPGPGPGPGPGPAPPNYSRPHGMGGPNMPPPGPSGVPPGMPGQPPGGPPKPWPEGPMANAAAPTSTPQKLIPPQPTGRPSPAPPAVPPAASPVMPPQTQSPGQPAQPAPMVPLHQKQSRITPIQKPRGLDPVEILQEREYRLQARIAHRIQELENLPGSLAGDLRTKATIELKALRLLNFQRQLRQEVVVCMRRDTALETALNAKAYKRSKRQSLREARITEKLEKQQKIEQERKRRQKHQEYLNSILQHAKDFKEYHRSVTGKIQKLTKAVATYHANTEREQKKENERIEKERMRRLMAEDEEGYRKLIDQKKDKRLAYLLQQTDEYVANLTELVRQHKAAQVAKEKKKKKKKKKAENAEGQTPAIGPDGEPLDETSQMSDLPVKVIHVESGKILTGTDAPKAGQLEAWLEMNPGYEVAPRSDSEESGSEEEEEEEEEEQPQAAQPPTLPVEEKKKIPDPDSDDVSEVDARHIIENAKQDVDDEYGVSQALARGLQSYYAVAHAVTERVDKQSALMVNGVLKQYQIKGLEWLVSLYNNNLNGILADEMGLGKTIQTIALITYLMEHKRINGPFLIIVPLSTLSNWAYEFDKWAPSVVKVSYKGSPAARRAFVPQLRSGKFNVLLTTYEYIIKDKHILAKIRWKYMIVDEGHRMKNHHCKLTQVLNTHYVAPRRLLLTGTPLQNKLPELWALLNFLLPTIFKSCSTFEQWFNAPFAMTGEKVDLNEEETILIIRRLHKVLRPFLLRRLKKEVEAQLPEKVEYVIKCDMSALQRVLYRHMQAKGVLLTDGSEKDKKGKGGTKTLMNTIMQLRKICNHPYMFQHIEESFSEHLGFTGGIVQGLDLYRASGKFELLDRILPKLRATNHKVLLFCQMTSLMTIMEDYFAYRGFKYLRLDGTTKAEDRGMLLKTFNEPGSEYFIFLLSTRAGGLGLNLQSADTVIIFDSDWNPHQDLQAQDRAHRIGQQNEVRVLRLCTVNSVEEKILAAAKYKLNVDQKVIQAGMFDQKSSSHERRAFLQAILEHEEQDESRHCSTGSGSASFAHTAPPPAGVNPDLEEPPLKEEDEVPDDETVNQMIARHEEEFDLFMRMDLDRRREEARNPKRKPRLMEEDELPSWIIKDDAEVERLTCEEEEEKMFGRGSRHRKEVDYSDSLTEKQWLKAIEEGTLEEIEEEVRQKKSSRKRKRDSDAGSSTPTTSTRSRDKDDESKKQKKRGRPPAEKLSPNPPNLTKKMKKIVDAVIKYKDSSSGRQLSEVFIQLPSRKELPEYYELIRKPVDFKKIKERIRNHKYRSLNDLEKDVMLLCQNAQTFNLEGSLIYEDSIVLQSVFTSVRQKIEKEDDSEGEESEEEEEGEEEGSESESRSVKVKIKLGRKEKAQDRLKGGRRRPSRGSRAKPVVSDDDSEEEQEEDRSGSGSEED

| SMILES | DC50 (SMARCA2) | Dmax (SMARCA2) | DC50 (SMARCA4) | Dmax (SMARCA4) |
| --- | --- | --- | --- | --- |
| Cc1ncsc1-c1ccc([C@H](C)NC(=O)[C@@H]2C[C@@H](O)CN2C(=O)[C@@H](c2cc(OCCN3CCC(N4CCC5(CC4)CNc4nnc(-c6ccccc6O)cc45)C3)no2)C(C)C)cc1 (stereo partly drawn) [Example 1, (2S,4R)-4-hydroxy-1-((2R)-2-(3-(2-(3-(3′-(2-hydroxyphenyl)-6′,7′-dihydrospiro[piperidine-4,5′-pyrrolo[2,3-c]pyridazin]-1-yl)pyrrolidin-1-yl)ethoxy)isoxazol-5-yl)-3-methylbutanoyl)-N-((S)-1-(4-(4-methylthiazol-5-yl)phenyl)ethyl) pyrrolidine-2-carboxamide] | < 100 nM | > 75% | ≥ 10000 nM | ≤ 50% |
| Cc1ncsc1-c1ccc([C@H](C)NC(=O)[C@@H]2C[C@@H](O)CN2C(=O)[C@@H](c2cc(OCCN3CCC(N4CCC5(CC4)CNc4nnc(-c6ccccc6O)cc4N5)CC3)no2)C(C)C)cc1 [Example 2, (2S,4R)-4-hydroxy-1-((R)-2-(3-(2-(4-(3′-(2-hydroxyphenyl)-7′,8′-dihydro-5′H-spiro[piperidine-4,6′-pyrazino[2,3-c]pyridazin]-1-yl)piperidin-1-yl)ethoxy)isoxazol-5-yl)-3-methylbutanoyl)-N-((S)-1-(4-(4-methylthiazol-5-yl)phenyl)ethyl) pyrrolidine-2-carboxamide] | < 100 nM | 50 to 75% | < 100 nM | > 75% |
| Cc1ncsc1-c1ccc([C@H](C)NC(=O)[C@@H]2C[C@@H](O)CN2C(=O)[C@@H](c2cc(OCCN3CCC(CN4CCC5(CC4)CNc4nnc(-c6ccccc6O)cc45)CC3)no2)C(C)C)cc1 [Example 3, (2S,4R)-4-hydroxy-1-((R)-2-(3-(2-(4-((3′-(2-hydroxyphenyl)-6′,7′-dihydrospiro[piperidine-4,5′-pyrrolo[2,3-c]pyridazin]-1-yl)methyl)piperidin-1-yl)ethoxy)isoxazol-5-yl)-3-methylbutanoyl)-N-((S)-1-(4-(4-methylthiazol-5-yl)phenyl)ethyl) pyrrolidine-2-carboxamide] | < 100 nM | 50 to 75% | ≥ 10000 nM | ≤ 50% |
| Cc1ncsc1-c1ccc([C@H](C)NC(=O)[C@@H]2C[C@@H](O)CN2C(=O)[C@@H](c2cc(OCCN3CCC(N4CCCC5(CNc6nnc(-c7ccccc7O)cc6N5)C4)C3)no2)C(C)C)cc1 (stereo partly drawn) [Example 4, (2S,4R)-4-hydroxy-1-((2R)-2-(3-(2-(3-(3′-(2-hydroxyphenyl)-7′,8′-dihydro-5′H-spiro[piperidine-3,6′-pyrazino[2,3-c]pyridazin]-1-yl)pyrrolidin-1-yl)ethoxy)isoxazol-5-yl)-3-methylbutanoyl)-N-((S)-1-(4-(4-methylthiazol-5-yl)phenyl)ethyl) pyrrolidine-2-carboxamide] | < 100 nM | 50 to 75% | < 100 nM | > 75% |

Results, then the compound that gave them:

| DC50 (SMARCA2) | Dmax (SMARCA2) | DC50 (SMARCA4) | Dmax (SMARCA4) | SMILES |
| --- | --- | --- | --- | --- |
| < 100 nM | 50 to 75% | < 100 nM | > 75% | Cc1ncsc1-c1ccc([C@H](C)NC(=O)[C@@H]2C[C@@H](O)CN2C(=O)[C@@H](c2cc(OCCN3CCC(N4CCCC5(CNc6nnc(-c7ccccc7O)cc6N5)C4)CC3)no2)C(C)C)cc1 (stereo partly drawn) [Example 5, (2S,4R)-4-hydroxy-1-((2R)-2-(3-(2-(4-(3′-(2-hydroxyphenyl)-7′,8′-dihydro-5′H-spiro[piperidine-3,6′-pyrazino[2,3-c]pyridazin]-1-yl)piperidin-1-yl)ethoxy)isoxazol-5-yl)-3-methylbutanoyl)-N-((S)-1-(4-(4-methylthiazol-5-yl)phenyl)ethyl) pyrrolidine-2-carboxamide] |
| 1000 to 10000 nM | ≤ 50% | 100 to 1000 nM | > 75% | Cc1ncsc1-c1ccc([C@H](C)NC(=O)[C@@H]2C[C@@H](O)CN2C(=O)[C@@H](c2cc(OCCN3CCC(N4CCC5(CC4)CNc4nnc(-c6ccccc6O)cc4N5)C3)no2)C(C)C)cc1 (stereo partly drawn) [Example 6, (2S,4R)-4-hydroxy-1-((2R)-2-(3-(2-(3-(3′-(2-hydroxyphenyl)-7′,8′-dihydro-5′H-spiro [piperidine-4,6′-pyrazino[2,3-c]pyridazin]-1-yl)pyrrolidin-1-yl)ethoxy)isoxazol-5-yl)-3-methylbutanoyl)-N-((S)-1-(4-(4-methylthiazol-5-yl)phenyl)ethyl) pyrrolidine-2-carboxamide] |
| < 100 nM | > 75% | < 100 nM | > 75% | Cc1ncsc1-c1ccc([C@H](C)NC(=O)[C@@H]2C[C@@H](O)CN2C(=O)[C@@H](c2cc(OCCN3CCC(CN4CCCC5(CNc6nnc(-c7ccccc7O)cc6N5)C4)CC3)no2)C(C)C)cc1 (stereo partly drawn) [Example 7, (2S,4R)-4-hydroxy-1-((2R)-2-(3-(2-(4-((3′-(2-hydroxyphenyl)-7′,8′-dihydro-5′H-spiro[piperidine-3,6′-pyrazino[2,3-c]pyridazin]-1-yl)methyl)piperidin-1-yl)ethoxy)isoxazol-5-yl)-3-methylbutanoyl)-N-((S)-1-(4-(4-methylthiazol-5-yl)phenyl)ethyl) pyrrolidine-2-carboxamide] |
| < 100 nM | > 75% | < 100 nM | > 75% | Cc1ncsc1-c1ccc([C@H](C)NC(=O)[C@@H]2C[C@@H](O)CN2C(=O)[C@@H](c2cc(OCCN3CCC(CN4CCC5(CC4)CNc4nnc(-c6ccccc6O)cc4N5)CC3)no2)C(C)C)cc1 [Example 8, (2S,4R)-4-hydroxy-1-((R)-2-(3-(2-(4-((3′-(2-hydroxyphenyl)-7′,8′-dihydro-5′H-spiro [piperidine-4,6′-pyrazino[2,3-c]pyridazin]-1-yl)methyl)piperidin-1-yl)ethoxy)isoxazol-5-yl)-3-methylbutanoyl)-N-((S)-1-(4-(4-methylthiazol-5-yl)phenyl)ethyl) pyrrolidine-2-carboxamide] |
